Experimental data reported in publication PMC9965590, “Development of Computational In Silico Model for Nano Lipid Carrier Formulation of Curcumin” (Molecules, 2023).

Legend:
[1] = In vitro drug release (dialysis bag, phosphate buffer pH 6.8, 37 °C); assay type: physicochemical
Method: The in vitro drug release research was conducted at 37 °C for 24 h in a phosphate buffer (pH 6.8).
The dialysis bag’s molecular weight threshold of 12–14 KDa was used to determine the in vitro drug release from the formulations [35, 82]. […] Regularly, new dissolution medium samples were taken from the dissolution medium and replaced. A volumetric flask filled with 10 Ml of methanol was treated with 1 mL of the filtrate after it was filtered through Whatman filter paper No. 1. As needed, additional dilutions were made. A spectrophotometric technique was used to analyze the materials. Calculations were made with the Korsmeyer and Peppas model and the PCP Disso Version 2.08 programmed [83, 84, 85, 86, 87, 88] to determine the time needed for 50 and 85% drug release, respectively.

[2] = In vitro gut permeation study; assay type: in vitro ADME; settings: after 8 h
Method: The experimental protocol was approved by the Institutional Animal Ethical Committee (IAEC) with approval number CPCSEA/IAEC/JLS/16/9/21/13. Experiments on a fasted Wistar rat’s (weighing 250–300 g) small intestine were conducted in a laboratory setting. An intestinal segment was removed from a dead rat after euthanasia using CO2 inhalation and it was cut into lengths of 6–7 cm. […] In a beaker heated to 37 °C, the sac was submerged in an oxygenated Krebs Ringer solution (20 mL). The sink was maintained by removing and replacing aliquots of 1 mL every 0.5, 1, 1.5, 2, and 8 h with an equivalent volume of warm Krebs Ringer solution heated to 37 °C. Each aliquot’s medication concentration was measured using HPLC (n = 3). The HPLC system is equipped through a Shimadzu LC-10AD VP pump, a C18 Agilent column (Inertsil, 150 mm × 4.66 mm, […]), and a flow rate of 1 mL/min; the mobile phase has been degassed. It is made up of an acetonitrile, water, and methanol (50:10:40) ratio. The detector wavelength was set at 425 nm. The injection volume was 10 µL. The samples were measured after diluting suitably with methanol. Each formulation’s flow and permeability coefficients were calculated.
Papp(cm/sec)=(DQ/dt)(AxCO)

[3] = Actual solubility of curcumin in lipids (laboratory experiment); assay type: physicochemical
Text: Table 2 Predicted versus actual results of curcumin solubility in different lipids. | column: Actual Solubility (mg/g)

Compound: COc1cc(/C=C/C(=O)CC(=O)/C=C/c2ccc(O)c(OC)c2)ccc1O [curcumin, Curcumin]
- time to dissolve 50% of the curcumin [1]: more than 24 h
- Papp at 8 h ([2]; Wistar, rat gut, mucosal to serosal): 4.88 ×10⁻⁶ cm/s
- permeability through the rat gut [2]: 6.83 ± 1.53 mcg/cm^2/h
- permeability and penetration release rate in the intestine and the gut ([2]; as printed in Conclusions): 6.83 ± 1.53 mg/cm^2/h
- Actual Solubility ([3]; in liquid lipid Castor oil): 3.52 ± 0.52 mg/g
- Actual Solubility ([3]; in liquid lipid Corn oil): 1.06 ± 0.15 mg/g
- Actual Solubility ([3]; in liquid lipid Grape seeds oil): 0.59 ± 0.64 mg/g
- Actual Solubility ([3]; in liquid lipid Oleic acid): 4.61 ± 0.13 mg/g
- Actual Solubility ([3]; in liquid lipid Olive oil): 3.48 ± 0.34 mg/g
- Actual Solubility ([3]; in liquid lipid Soybean oil): 1.36 ± 0.26 mg/g
- Actual Solubility ([3]; in solid lipid Cetosteryl): 2.06 ± 0.13 mg/g
- Actual Solubility ([3]; in solid lipid GMS): 3.58 ± 0.03 mg/g
- Actual Solubility ([3]; in solid lipid Palmitic acid): 3.28 ± 0.06 mg/g
- Actual Solubility ([3]; in solid lipid Stearic acid): 2.62 ± 0.12 mg/g
- Actual Solubility ([3]; in solid lipid Tri Palmitin): 3.25 ± 0.30 mg/g
